Test results taken from patent publication US8927738B2, “2-arylimidazole derivatives as PDE10A enzyme inhibitors” (H. Lundbeck A/S, priority 2009, dated 2015).

Target: PDE10A enzyme (Homo sapiens (Human), UniProt Q9Y233)
Assay: PDE10A inhibition assay
Type: biochemical
Conditions: tritium labeled cAMP substrate 5 nM
Description: Active PDE10A enzyme is prepared in a number of ways for use in PDE assays (Loughney, K. et al. Gene 1999, 234, 109-117; Fujishige, K. et al. Eur J Biochem. 1999, 266, 1118-1127 and Soderling, S. et al. Proc. Natl. Acad. Sci. 1999, 96, 7071-7076). PDE10A can be expressed as full-length proteins or as truncated proteins, as long as they express the catalytic domain. PDE10A can be prepared in different cell types, for example insect cells or E. coli. An example of a method to obtain catalytically active PDE10A is as follows: The catalytic domain of human PDE10A (amino acids 440-779 from the sequence with accession number NP 006652) is amplified from total human brain total RNA by standard RT-PCR and is cloned into the BamH1 and Xho1 sites of the pET28a vector (Novagen). Expression in coli is performed according to standard protocols. Briefly, the expression plasmids are transformed into the BL21(DE3) E. coli strain, and 50 mL cultures inoculated with the cells allowed to grow to an OD600 of 0.4-0.6 before protein expression is induced with 0.5 mM IPTG. Following induction, the cells are incubated overnight at room temperature, after which the cells are collected by centrifugation. Cells expressing PDE10A are resuspended in 12 mL (50 mM TRIS-HCl-pH8.0, 1 mM MgCl2 and protease inhibitors). The cells are lysed by sonication, and after all cells are lysed, TritonX100 is added according to Novagen protocols.
A PDE10A assay may for example, be performed as follows: The assay is performed in 60 uL samples containing a fixed amount of the relevant PDE enzyme (sufficient to convert 20-25% of the cyclic nucleotide substrate), a buffer (50 mM HEPES7.6; 10 mM MgCl2; 0.02% Tween20), 0.1 mg/ml BSA, 225 pCi of ^3H-labelled cyclic nucleotide substrate, tritium labeled cAMP to a final concentration of 5 nM and varying amounts of inhibitors. Reactions are initiated by addition of the cyclic nucleotide substrate, and reactions are allowed to proceed for one hr at room temperature before being terminated through mixing with 15 uL 8 mg/mL yttrium silicate SPA beads (Amersham). The beads are allowed to settle for one hr in the dark before the plates are counted in a Wallac 1450 Microbeta counter. The measured signal can be converted to activity relative to an uninhibited control (100%) and IC50 values can be calculated using the Xlfit extension to EXCEL.

Chain of PDE10A enzyme (Q9Y233 716-1055): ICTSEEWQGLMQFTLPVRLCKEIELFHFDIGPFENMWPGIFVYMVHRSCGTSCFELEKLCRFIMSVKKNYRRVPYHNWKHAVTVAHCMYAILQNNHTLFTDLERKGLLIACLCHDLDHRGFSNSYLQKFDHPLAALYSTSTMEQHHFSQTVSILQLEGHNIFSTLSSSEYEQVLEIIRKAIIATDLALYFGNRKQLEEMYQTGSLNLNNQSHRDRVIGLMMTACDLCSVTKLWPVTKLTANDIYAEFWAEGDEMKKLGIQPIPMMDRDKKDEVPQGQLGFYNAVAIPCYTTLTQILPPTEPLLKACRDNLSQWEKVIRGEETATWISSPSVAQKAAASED

IC50 [nM]	Structure (SMILES)
1.1	Cc1ncc(C)n2nc(CCc3cn(C)c(-c4ccco4)n3)nc12 [2-[2-(2-Furan-2-yl-1-methyl-1H-imidazol-4-yl)-ethyl]-5,8-dimethyl-[1,2,4]triazolo[1,5-a]pyrazine]
0.75	Cc1ccc(C)n2nc(CCc3cn(C)c(-c4ccco4)n3)nc12 [2-[2-(2-Furan-2-yl-1-methyl-1H-imidazol-4-yl)-ethyl]-5,8-dimethyl-[1,2,4]triazolo[1,5-a]pyridine]
0.97	Cc1ncc(C)n2nc(CCc3c[nH]c(-c4ccco4)n3)nc12 [2-[2-(2-Furan-2-yl-1H-imidazol-4-yl)-ethyl]-5,8-dimethyl-[1,2,4]triazolo[1,5-a]pyrazine]
0.62	Cc1ccc(C)n2nc(CCc3c[nH]c(-c4ccco4)n3)nc12 [2-[2-(2-Furan-2-yl-1H-imidazol-4-yl)-ethyl]-5,8-dimethyl-[1,2,4]triazolo[1,5-a]pyridine]
0.27	Cc1ncc(C)n2nc(CCc3c[nH]c(-c4ccoc4)n3)nc12 [2-[2-(2-Furan-3-yl-1H-imidazol-4-yl)-ethyl]-5,8-dimethyl-[1,2,4]triazolo[1,5-a]pyrazine]
0.65	Cc1ccc(C)n2nc(CCc3c[nH]c(-c4ccoc4)n3)nc12 [2-[2-(2-Furan-3-yl-1H-imidazol-4-yl)-ethyl]-5,8-dimethyl-[1,2,4]triazolo[1,5-a]pyridine]
12	Cc1ncc(C)n2nc(CCc3c[nH]c(-c4ccc(F)cc4)n3)nc12 [2-{2-[2-(4-Fluoro-phenyl)-1H-imidazol-4-yl]-ethyl}-5,8-dimethyl-[1,2,4]triazolo[1,5-a]pyrazine]
45	Cc1ncc(C)n2nc(CCc3cn(C)c(-c4ccccc4)n3)nc12 [5,8-Dimethyl-2-[2-(1-methyl-2-phenyl-1H-imidazol-4-yl)-ethyl]-[1,2,4]triazolo[1,5-a]pyrazine]
7.7	Cc1ncc(C)n2nc(CCc3cn(C)c(-c4nccs4)n3)nc12 [5,8-Dimethyl-2-[2-(1-methyl-2-thiazol-2-yl-1H-imidazol-4-yl)-ethyl]-[1,2,4]triazolo[1,5-a]pyrazine]
11	Cc1ncc(C)n2nc(CCc3cn(C)c(-c4cscn4)n3)nc12 [5,8-Dimethyl-2-[2-(1-methyl-2-thiazol-4-yl-1H-imidazol-4-yl)-ethyl]-[1,2,4]triazolo[1,5-a]pyrazine]
22	Cc1ncc(C)n2nc(CCc3cn(C)c(-c4cncs4)n3)nc12 [5,8-Dimethyl-2-[2-(1-methyl-2-thiazol-5-yl-1H-imidazol-4-yl)-ethyl]-[1,2,4]triazolo[1,5-a]pyrazine]
1	Cc1ncc(C)n2nc(CCc3cn(C)c(-c4cccs4)n3)nc12 [5,8-Dimethyl-2-[2-(1-methyl-2-thiophen-2-yl-1H-imidazol-4-yl)-ethyl]-[1,2,4]triazolo[1,5-a]pyrazine]
4.2	Cc1ncc(C)n2nc(CCc3c[nH]c(-c4ccccc4)n3)nc12 [5,8-Dimethyl-2-[2-(2-phenyl-1H-imidazol-4-yl)-ethyl]-[1,2,4]triazolo[1,5-a]pyrazine]
0.63	Cc1ncc(C)n2nc(CCc3c[nH]c(-c4nccs4)n3)nc12 [5,8-Dimethyl-2-[2-(2-thiazol-2-yl-1H-imidazol-4-yl)-ethyl]-[1,2,4]triazolo[1,5-a]pyrazine]
1.6	Cc1ccc(C)n2nc(CCc3c[nH]c(-c4nccs4)n3)nc12 [5,8-Dimethyl-2-[2-(2-thiazol-2-yl-1H-imidazol-4-yl)-ethyl]-[1,2,4]triazolo[1,5-a]pyridine]
3.5	Cc1ncc(C)n2nc(CCc3c[nH]c(-c4cscn4)n3)nc12 [5,8-Dimethyl-2-[2-(2-thiazol-4-yl-1H-imidazol-4-yl)-ethyl]-[1,2,4]triazolo[1,5-a]pyrazine]
3.5	Cc1ccc(C)n2nc(CCc3c[nH]c(-c4cscn4)n3)nc12 [5,8-Dimethyl-2-[2-(2-thiazol-4-yl-1H-imidazol-4-yl)-ethyl]-[1,2,4]triazolo[1,5-a]pyridine]
6.5	Cc1ncc(C)n2nc(CCc3c[nH]c(-c4cncs4)n3)nc12 [5,8-Dimethyl-2-[2-(2-thiazol-5-yl-1H-imidazol-4-yl)-ethyl]-[1,2,4]triazolo[1,5-a]pyrazine]
3.1	Cc1ccc(C)n2nc(CCc3c[nH]c(-c4cncs4)n3)nc12 [5,8-Dimethyl-2-[2-(2-thiazol-5-yl-1H-imidazol-4-yl)-ethyl]-[1,2,4]triazolo[1,5-a]pyridine]
0.4	Cc1ncc(C)n2nc(CCc3c[nH]c(-c4cccs4)n3)nc12 [5,8-Dimethyl-2-[2-(2-thiophen-2-yl-1H-imidazol-4-yl)-ethyl]-[1,2,4]triazolo[1,5-a]pyrazine]
0.34	Cc1ccc(C)n2nc(CCc3c[nH]c(-c4cccs4)n3)nc12 [5,8-Dimethyl-2-[2-(2-thiophen-2-yl-1H-imidazol-4-yl)-ethyl]-[1,2,4]triazolo[1,5-a]pyridine]
3.5	Cc1ccc(-c2nc(CCc3nc4c(C)ncc(C)n4n3)cn2C)o1 [5,8-Dimethyl-2-{2-[1-methyl-2-(5-methyl-furan-2-yl)-1H-imidazol-4-yl]-ethyl}-[1,2,4]triazolo[1,5-a]pyrazine]
23	CCc1ccc(C)n2nc(CCc3cn(C)c(-c4ccccc4)n3)nc12 [8-Ethyl-5-methyl-2-[2-(1-methyl-2-phenyl-1H-imidazol-4-yl)-ethyl]-[1,2,4]triazolo[1,5-a]pyridine]
79	COc1ccc(C)n2nc(CCc3cn(C)c(-c4ccccc4)n3)nc12 [8-Methoxy-5-methyl-2-[2-(1-methyl-2-phenyl-1H-imidazol-4-yl)-ethyl]-[1,2,4]triazolo[1,5-a]pyridine]
9	COc1ccc(C)n2nc(CCc3cn(C)c(-c4cccs4)n3)nc12 [8-Methoxy-5-methyl-2-[2-(1-methyl-2-thiophen-2-yl-1H-imidazol-4-yl)-ethyl]-[1,2,4]triazolo[1,5-a]pyridine]
5.9	COc1ccc(C)n2nc(CCc3c[nH]c(-c4ccccc4)n3)nc12 [8-Methoxy-5-methyl-2-[2-(2-phenyl-1H-imidazol-4-yl)-ethyl]-[1,2,4]triazolo[1,5-a]pyridine]

Test system: rats
Assay: not given
Conditions: cited from earlier work

Structure (SMILES)	reduction of amphetamine induced hyperactivity
COc1ccc(Cc2nccc3cc(OC)c(OC)cc23)cc1OC [Papaverine, papaverine]	insignificant

Test system: rats
Assay: not given
Conditions: cited from earlier work
Remark: another data set of the same source

Structure (SMILES)	hyperactivity induced by PCP
COc1ccc(Cc2nccc3cc(OC)c(OC)cc23)cc1OC [Papaverine, papaverine]	reduced hyperactivity

Test system: rats
Assay: not given
Conditions: papaverine alone; cited from earlier work

Structure (SMILES)	catalepsy caused on its own
COc1ccc(Cc2nccc3cc(OC)c(OC)cc23)cc1OC [Papaverine, papaverine]	did not cause catalepsy on its own

Same assay, conditions: with the D2 receptor antagonist haloperidol; cited from earlier work

Structure (SMILES)	effect on the cataleptic effect of haloperidol
COc1ccc(Cc2nccc3cc(OC)c(OC)cc23)cc1OC [Papaverine, papaverine]	potentiated the cataleptic effect
